“And” between values parts separate entries of the source, which are not always exact repeats. Identical values can stand only once. Like-named read-outs stand apart in the source and are kept apart here.
Legend:
HCT-116 cells = test: HCT-116 cell viability MTS assay; type: cell-based; conditions: Homo sapiens
Description: HCT-116 cell viability was examined by the MTS assay (Promega, Madison, Wis., USA). 2000 HCT-116 cells in 100 μL McCoy's 5a medium were seeded in each well of a 96-well plate. After 96-h incubation with a test compound, the cells were incubated with 20 μL of a MTS/PMS mixture (MTS/PMS ratio: 20: 1) for 2 h at 37° C. in a humidified incubator with 5% CO2 to allow viable cells to convert the tetrazolium salt (MTS) into formazan. The amount/concentration of formazan, which indicates the number of live cells, was determined by measuring the absorbance at 490 nm using a PerkinElmer Victor2 plate reader (PerkinElmer, Shelton, Cont., USA).

[1] = target: T1, GST-tAurora A (123-401aa) fusion protein (Homo sapiens, UniProt O14965); test: Aurora Kinase A luminescent kinase assay; type: biochemical; conditions: IC50 (concentration of a test compound at which activity of 50% of Aurora A is inhibited)
T1 construct: GST-tAurora A (123-401aa) fusion protein; made in house; host or cells: Sf9 insect cells (baculovirus, pBacPAK8)
T1 sequence (O14965 123-401): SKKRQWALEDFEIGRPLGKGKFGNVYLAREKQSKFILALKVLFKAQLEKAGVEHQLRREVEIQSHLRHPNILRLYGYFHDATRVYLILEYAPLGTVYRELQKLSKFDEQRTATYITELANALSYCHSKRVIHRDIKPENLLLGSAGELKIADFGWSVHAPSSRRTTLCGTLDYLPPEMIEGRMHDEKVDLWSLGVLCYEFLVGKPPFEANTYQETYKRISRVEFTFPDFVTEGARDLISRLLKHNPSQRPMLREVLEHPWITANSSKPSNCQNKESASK
Description: The Aurora A catalytic domain with an N-terminal GST tag was constructed in pBacPAK8 plasmid and expressed in sf9 cells. […] To concentrate GST-tAurora A, buffer was replaced with Tris buffer (100 mM Tris (pH 7.5), 300 mM NaCl, 1 mM EDTA, 4 mM DTT) using Amicon ultra-15 (MWCO:30K, Millipore) to 2.4 mg/ml. After the addition of equal volume of glycerol and 0.04% Triton X-100, the proteins were stored aliquoted at −80° C.
Briefly, a test compound, enzyme, substrate-tetra(LRRWSLG), DTT and ATP were dissolved in Aur buffer (50 mM Tris-HCl pH 7.4, 10 mM NaCl, 10 mM MgCl2, and 100 μg/ml BSA) individually before the assay. […] 5 μM ATP (5 μl), 1 mM DTT (5 μl) and 0.1 mM tetra(LRRWSLG) peptide substrate (5 μl) were added into the reactions of test compounds and GST-tAurora A. The reactions were incubated at 37° C. for 90 min. 50 μl of Kinase-Glo Plus Reagent (V3771, Promega) was added into the reactions, followed by the incubation at 25° C. for 20 min.

[2] = read-out: IC50 (concentration of a test compound which causes 50% of the cell death), HCT-116, 96-h incubation, MTS
[3] = HCT-116, 96 h, read-out: IC50 (concentration of a test compound which causes 50% of the cell death), HCT-116, 96-h incubation, MTS

SMILES	IC50 (HCT-116 cells; [2]) [nM]	IC50 [1]	IC50 (HCT-116 cells; [3]) [nM]	IC50 (HCT-116 cells; HCT-116, 96 h, read-out: IC50 (concentration of a test compound which causes 50% of the cell death)) [nM]
O=C(Nc1ccccc1)Nc1ccc(CCNc2ncnc3sc4c(c23)CCC4)cc1 [Compound 196]	100 to 900	45 to 400 nM and < 1000 nM	–	–
O=C(Nc1ccccc1)Nc1ccc(CCNc2ncnc3oc(-c4ccccc4)c(-c4ccc(O)cc4)c23)cc1 [Compound 60]	100 to 900	< 1000 nM	–	–
O=C(Nc1ccc(CCNc2ncnc3oc(-c4ccccc4)c(-c4ccccc4)c23)cc1)Nc1ccccc1F [Compound 96]	100 to 900	45 to 400 nM and < 1000 nM	–	–
O=C(Nc1ccccc1)Nc1ccc(CCNc2ncnc3oc(-c4ccc(OCCN5CCC(O)CC5)cc4)cc23)cc1 [Compound 239]	100 to 900	< 1000 nM and 45 to 400 nM	–	–
CCCCNC(=O)Nc1ccc(CCNc2ncnc3oc(-c4ccccc4)c(-c4ccccc4)c23)cc1 [Compound 222]	100 to 900	< 1000 nM and 45 to 400 nM	–	–
CN(C)CCOc1cccc(-c2cc3c(NCCc4ccc(NC(=O)Nc5ccccc5)cc4)ncnc3o2)c1 [Compound 224]	–	< 1000 nM and 45 to 400 nM	100 to 900	–
CN(C)Cc1ccccc1NC(=O)Nc1ccc(CCNc2ncnc3oc(-c4ccccc4)c(-c4ccccc4)c23)cc1 [Compound 123]	100 to 900	45 to 400 nM and < 1000 nM	–	–
O=C(Nc1ccc(CCNc2ncnc3oc(-c4ccccc4)c(-c4ccccc4)c23)cc1)Nc1cccnc1 [Compound 147]	100 to 900	45 to 400 nM and < 1000 nM	–	–
O=C(Nc1ccccc1)Nc1ccc(CCNc2ncnc3oc(-c4ccccc4)c(Br)c23)cc1 [Compound 57]	100 to 900	45 to 400 nM and < 1000 nM	–	–
O=C(Nc1ccc(F)cc1)Nc1ccc(CCNc2ncnc3oc(-c4ccccc4)c(-c4ccccc4)c23)cc1 [Compound 61]	100 to 900	45 to 400 nM and < 1000 nM	–	–
O=C(Nc1ccccc1)Nc1ccc(CCNc2ncnc3oc(-c4ccc(OCCCN5CCC(CO)CC5)cc4)cc23)cc1 [Compound 237]	100 to 900	< 1000 nM and 45 to 400 nM	–	–
O=C(Nc1ccccc1)Nc1ccc(CCNc2ncnc3sc4c(c23)CCCCC4)cc1 [Compound 248]	100 to 900	< 1000 nM	–	–
O=C(Nc1ccccc1)Nc1ccc(CCNc2ncnc3oc(-c4ccc(OCCCN5CCC(O)CC5)cc4)cc23)cc1 [Compound 240]	100 to 900	< 1000 nM and 45 to 400 nM	–	–
COc1ccc(-c2oc3ncnc(NCCc4ccc(NC(=O)Nc5ccccc5)cc4)c3c2Cl)cc1 [Compound 244]	100 to 900	< 1000 nM and 45 to 400 nM	–	–
CN(C)Cc1ccc(NC(=O)Nc2ccc(CCNc3ncnc4oc(-c5ccccc5)c(Cl)c34)cc2)cc1 [Compound 253]	100 to 900	45 to 400 nM and < 1000 nM	–	–
O=C(NCCN1CCOCC1)Nc1ccc(CCNc2ncnc3oc(-c4ccccc4)c(Cl)c23)cc1 [Compound 218]	100 to 900	< 1000 nM and 45 to 400 nM	–	–
O=C(Nc1ccncc1)Nc1ccc(CCNc2ncnc3oc(-c4ccccc4)c(-c4ccccc4)c23)cc1 [Compound 148]	100 to 900	< 1000 nM	–	–
COc1ccc(-c2cc3c(NCCc4ccc(NC(=O)Nc5ccccc5)cc4)ncnc3o2)cc1 [Compound 204]	100 to 900	< 1000 nM and 45 to 400 nM	–	–
CN(C)CCCOc1ccc(-c2cc3c(NCCc4ccc(NC(=O)Nc5ccccc5)cc4)ncnc3o2)cc1 [Compound 247]	–	45 to 400 nM and < 1000 nM	100 to 900	–
Cc1oc2ncnc(NCCc3cnc(NC(=O)Nc4ccccc4)s3)c2c1C [Compound 254]	100 to 900	45 to 400 nM and < 1000 nM	–	–
O=C(Nc1ccccc1)Nc1ccc(CCNc2ncnc3oc(-c4ccc(OCCN5CCC(CO)CC5)cc4)cc23)cc1 [Compound 236]	100 to 900	< 1000 nM and 45 to 400 nM	–	–
CN(C)Cc1cccc(NC(=O)Nc2ccc(CCNc3ncnc4oc(-c5ccccc5)c(Cl)c34)cc2)c1 [Compound 252]	100 to 900	< 1000 nM	–	–
O=C(Nc1ccc(Cl)cc1)Nc1ccc(CCNc2ncnc3oc(-c4ccccc4)c(-c4ccccc4)c23)cc1 [Compound 93]	100 to 900	< 1000 nM	–	–
O=C(Nc1ccccc1)Nc1ccc(CCNc2ncnc3oc(Cl)c(-c4ccccc4)c23)cc1 [Compound 213]	100 to 900	< 1000 nM	–	–

SMILES	IC50 (HCT-116 cells; [2]) [nM]	IC50 [1]	IC50 (HCT-116 cells; [3]) [nM]	IC50 (HCT-116 cells; HCT-116, 96 h, read-out: IC50 (concentration of a test compound which causes 50% of the cell death)) [nM]
O=C(Nc1ccccc1)Nc1ncc(CCNc2ncnc3oc(-c4ccccc4)cc23)s1 [Compound 255]	100 to 900	< 1000 nM	–	–
O=C(Nc1ccc(CCNc2ncnc3oc(-c4ccccc4)c(-c4ccccc4)c23)cc1)Nc1ccc(F)cc1F [Compound 92]	100 to 900	< 1000 nM	–	–
O=C(Nc1ccccc1)Nc1ccc(CCNc2ncnc3cc(-c4ccccc4)oc23)cc1 [Compound 176]	100 to 900	< 1000 nM	–	–
O=C(Nc1ccccc1)Nc1ncc(CCNc2ncnc3oc(-c4ccccc4)c(Cl)c23)s1 [Compound 256]	100 to 900	45 to 400 nM and < 1000 nM	–	–
O=C(Nc1ccccc1)Nc1ccc(CCNc2ncnc3oc(-c4ccccc4)c(-c4cccc([N+](=O)[O-])c4)c23)cc1 [Compound 219]	100 to 900	< 1000 nM and 45 to 400 nM	–	–
O=C(Nc1ccccc1)Nc1ccc(CCNc2ncnc3oc(-c4ccccc4)c(C#CCCO)c23)cc1 [Compound 249]	100 to 900	45 to 400 nM and < 1000 nM	–	–
CN(C)Cc1ccc(NC(=O)Nc2ccc(CCNc3ncnc4oc(-c5ccccc5)c(-c5ccccc5)c34)cc2)cc1 [Compound 115]	100 to 900	< 1000 nM	–	–
O=C(Nc1ccccc1)Nc1ccc(CCNc2ncnc3oc(-c4ccccc4)c(CO)c23)cc1 [Compound 225]	100 to 900	< 1000 nM and 45 to 400 nM	–	–
CC(=O)Nc1ccc(-c2c(-c3ccccc3)oc3ncnc(NCCc4ccc(NC(=O)Nc5ccccc5)cc4)c23)cc1 [Compound 58]	100 to 900	< 1000 nM	–	–
O=C(Nc1ccccc1)Nc1ccc(CCNc2ncnc3oc(-c4ccc(O)cc4)c(-c4ccc(O)cc4)c23)cc1 [Compound 24]	100 to 900	< 1000 nM	–	–
O=C(Nc1ccccc1)Nc1ccc(CCNc2ncnc3[nH]c(-c4ccccc4)c(-c4ccccc4)c23)cc1 [Compound 172]	100 to 900	45 to 400 nM and < 1000 nM	–	–
COc1cccc(-c2cc3c(NCCc4ccc(NC(=O)Nc5ccccc5)cc4)ncnc3o2)c1 [Compound 221]	100 to 900	< 1000 nM and 45 to 400 nM	–	–
Cc1oc2ncnc(NCCc3ccc(NC(=O)Nc4ccccc4)cc3)c2c1C [Compound 220]	100 to 900	< 1000 nM and 45 to 400 nM	–	–
O=C(Nc1ccccc1)Nc1ccc(CCNc2ncnc3oc(-c4ccc(OCCCl)cc4)cc23)cc1 [Compound 235]	100 to 900	< 1000 nM and 45 to 400 nM	–	–
O=C(Nc1ccccc1)Nc1ccc(CCNc2ncnc3oc(-c4ccccc4)cc23)cc1 [Compound 79]	100 to 900	45 to 400 nM and < 1000 nM	–	–
O=C(Nc1ccc(CCNc2ncnc3oc(-c4ccccc4)c(Cl)c23)cc1)Nc1cccnc1 [Compound 232]	100 to 900	45 to 400 nM and < 1000 nM	–	–
COc1ccc(-c2cc3c(NCCc4ccc(NC(=O)Nc5ccccc5CN(C)C)cc4)ncnc3o2)cc1 [Compound 245]	100 to 900	< 1000 nM	–	–
O=C(Nc1ccccc1)Nc1ccc(CCNc2ncnc3oc(-c4ccc(OCCCN5CCC[C@H]5CO)cc4)cc23)cc1 [Compound 241]	100 to 900	< 1000 nM and 45 to 400 nM	–	–
O=C(NCCCl)Nc1ccc(CCNc2ncnc3oc(-c4ccccc4)cc23)cc1 [Compound 215]	–	< 1000 nM	–	100 to 900
O=C(Nc1ccccc1)Nc1ccc(CCNc2ncnc3oc(-c4ccc(O)cc4)cc23)cc1 [Compound 205]	< 100	< 1000 nM and 45 to 400 nM	–	–
CC(=O)Nc1cccc(-c2c(-c3ccccc3)oc3ncnc(NCCc4ccc(NC(=O)Nc5ccccc5)cc4)c23)c1 [Compound 80]	100 to 900	45 to 400 nM and < 1000 nM	–	–
O=C(Nc1ccccc1)Nc1ccc(CCNc2ncnc3sc4c(c23)CCCC4)cc1 [Compound 42, N-phenyl-N′-4-[2-(5,6,7,8-tetrahydrobenzo[4,5]thieno[2,3-d]pyrimidin-4-ylamino)ethyl]phenylurea]	100 to 900	45 to 400 nM and < 1000 nM	–	–
Cc1c(-c2ccccc2)oc2ncnc(NCCc3ccc(NC(=O)Nc4ccccc4)cc3)c12 [Compound 226]	100 to 900	< 1000 nM and 45 to 400 nM	–	–
CN(C)Cc1ccccc1NC(=O)Nc1ccc(CCNc2ncnc3oc(-c4ccccc4)cc23)cc1 [Compound 211]	100 to 900	< 1000 nM and 45 to 400 nM	–	–

— patent publication US8138194B2, “Fused bicyclic pyrimidine compounds as aurora kinase inhibitors” (National Health Research Institutes, priority 2008, dated 2012)
